SMILES strings stand for the structures.

Test [1] deals with Human vascular smooth muscle cells. As to the kind of experiment: phosphorus-induced calcification of vascular smooth muscle cells (alizarin red staining, calcium content). It counts as cell-based. Conditions: 100 µM 1-methylnicotinamide, 2.6 mM phosphorus, 7 days. The protocol:
• 1. In this example, phosphorus was added to induce vascular calcification in vascular smooth muscle cells, and 1-methylnicotinamide or nicotinamide N-methyltransferase inhibitor (NNMTi) was added for intervention for 7 days, and then alizarin red staining was performed to evaluate the inhibitory effect of 1-methylnicotinamide on vascular calcification. The specific procedure was as follows. Human vascular smooth muscle cells of passages 8-12 were plated in a 12-well plate at 1×10^5/well, and 1 mL of DMEM complete medium was added to each well. On the first day after plating, 2.6 mM phosphorus was added to induce calcification, and 100 µM 1-methylnicotinamide or 25 µM nicotinamide N-methyltransferase inhibitor (NNMTi) was added for intervention. On the fourth day, the DMEM complete medium was replaced and 2.6 mM phosphorus was added to induce calcification again, and 100 µM 1-methylnicotinamide or 25 µM nicotinamide N-methyltransferase inhibitor (NNMTi) was added for intervention. […] After 7 days of intervention with 1-methylnicotinamide or nicotinamide N-methyltransferase inhibitor (NNMTi), a calcium content was determined. […]
(§1) Human vascular smooth muscle cells of passages 8-12 were plated in a 6-well plate at 2×10^5/well, and 2 mL of DMEM complete medium was added to each well. […] On the seventh day, the calcium content was determined.

Test [2] shares this test system. As to the kind of experiment: bleomycin (BLM) and phosphorus-induced calcification of vascular smooth muscle cells under aging conditions (alizarin red staining, calcium content). It counts as cell-based. The following applies: 100 µM 1-methylnicotinamide, 2.6 mM phosphorus, 1 µg/mL bleomycin, 7 days. As to the method: • 1. In this example, bleomycin (BLM) and phosphorus were added to induce vascular calcification in vascular smooth muscle cells, and 1-methylnicotinamide or nicotinamide N-methyltransferase inhibitor (NNMTi) was added for intervention for 7 days, and then alizarin red staining was performed to evaluate the inhibitory effect of 1-methylnicotinamide on vascular calcification. The specific procedure was as follows. Human vascular smooth muscle cells of passages 8-12 were plated in a 12-well plate at 1×10^5/well, and 1 mL of DMEM complete medium was added to each well. On the first day after plating, 2.6 mM phosphorus was added to induce calcification, and 100 µM 1-methylnicotinamide or 25 µM nicotinamide N-methyltransferase inhibitor (NNMTi) was added for intervention. […] After 7 days of intervention with 1-methylnicotinamide or nicotinamide N-methyltransferase inhibitor (NNMTi), a calcium content was determined. […]
as §1

Test [3] shares this test system. As to the kind of experiment: cisplatin (DDP) and phosphorus-induced calcification of vascular smooth muscle cells under aging conditions (alizarin red staining, calcium content). It counts as cell-based. The following applies: 100 µM 1-methylnicotinamide, 2.6 mM phosphorus, 7 days. As to the method: 3. To further verify the effect of 1-methylnicotinamide in inhibiting vascular calcification under aging conditions, cisplatin (DDP) and phosphorus were added to induce calcification in vascular smooth muscle cells. After 7 days of intervention with 1-methylnicotinamide or nicotinamide N-methyltransferase inhibitor (NNMTi), alizarin red staining was performed to further evaluate the inhibitory effect of 1-methylnicotinamide on vascular calcification under aging conditions. The specific procedure was as follows.
Human vascular smooth muscle cells of passages 8-12 were plated in a 12-well plate at 1×10^5/well, and 1 mL of DMEM complete medium was added to each well. On the first day after plating, 2.6 mM phosphorus was added to induce calcification, and 100 µM 1-methylnicotinamide or 25 µM nicotinamide N-methyltransferase inhibitor (NNMTi) was added for intervention. […]
4. Cisplatin and phosphorus were added to induce calcification in vascular smooth muscle cells, and 1-methylnicotinamide or nicotinamide N-methyltransferase inhibitor (NNMTi) was added for intervention for 7 days, and then the calcium content was determined. […]
as §1

Test [4] deals with Naturally aged C57BL/6 mice. As to the kind of experiment: high-calcium and high-adenine diet-induced vascular calcification in aged mice (aorta alizarin red staining, IHC of aortic rings). Format: in vivo. The following applies: 2.5 months, 25 months old mice. As to the method:
• 1. In this example, a high-calcium and high-adenine diet was used to induce vascular calcification in aged mice. After intervention by using 1-methylnicotinamide for 2.5 months, alizarin red staining was performed on the aorta of the mice to evaluate the inhibitory effect of 1-methylnicotinamide on vascular calcification in aged mice. The specific procedure was as follows.
Naturally aged C57BL/6 mice (25 months old) were randomly divided into a control group (n=10), a high-calcium and high-adenine group (n=10), and a high-calcium and high-adenine + 1-methylnicotinamide group (100 mg/kg/day) (n=10), and were fed with normal feed, high-calcium and high-adenine feed, and high-calcium and high-adenine feed and 1-methylnicotinamide respectively, and water is normally provided for each group. The mice were killed after 2.5 months, and the aortas of the mice were obtained for alizarin red staining.
2. To further verify the effect of 1-methylnicotinamide in inhibiting vascular calcification in aged mice, a high-calcium and high-adenine diet was used to induce vascular calcification in aged mice. After 2.5 months of intervention with 1-methylnicotinamide, the IHC staining was performed on α-smooth muscle actin (α-SMA) and bone morphogenetic protein 2 (BMP2) in mouse aortic rings to further evalaute the inhibitory effect of 1-methylnicotinamide on vascular calcification in aged mice. […]

Consider `C[n+]1cccc(C(N)=O)c1` [1-methylnicotinamide], for which the alizarin red staining entry is listed as “could significantly inhibit the occurrence of vascular calcification” in test [1] (Fig. 1); “could significantly inhibit the calcification of bleomycin-induced aged vascular smooth muscle cells” in test [2] (Panel A of Fig. 3); “could significantly inhibit the calcification of cisplatin-induced aged vascular smooth muscle cells” in test [3] (1 µg/mL cisplatin, Panel C of Fig. 3). In addition, the calcium content entry is reported as “had the effect of inhibiting vascular calcification” in test [1] (Fig. 2); “had the effect of inhibiting vascular calcification under aging conditions” in test [2] (Panel B of Fig. 3); “had the effect of inhibiting vascular calcification under aging conditions” in test [3] (1 µM cisplatin, Panel D of Fig. 3). The “alizarin red staining of the aorta” value in test [4] (100 mg/kg/day 1-methylnicotinamide with high-calcium and high-adenine feed, Panel A of Fig. 4) was “could significantly inhibit vascular calcification in aged mice”. Also, the “IHC staining of α-SMA and BMP2 in aortic rings” value in test [4] (1-methylnicotinamide with high-calcium and high-adenine feed, Panel B of Fig. 4) is reported as “could significantly inhibit vascular calcification in aged mice”.
